The text below walks through data of patent US5153176A, “Tripeptide derivatives and protease inhibitor composition comprising the same” (Nitto Boseki Co., Ltd., priority 1990, dated 1992).

What all share (format): biochemical
One assay deals with T1, plasmin (Homo sapiens, UniProt P00747).
T1 construct: purchased Sankyo (Sankyo Color Test α2 -PI Assay Kit Standard)
The experiment in a line: Assay for inhibitory activity against plasmin (synthetic substrate PS-994). The conditions noted are these: Table 3, compounds of the invention; PS-994, pH 7.8, 37° C.; read-out: Plasmin. The text has this: (§1) As synthetic substrate used to examine the activity of the inhibitor for inhibiting substrate decomposition with the enzyme, there were used PS-994 (H-D-Lys(Tos)-Phe-Lys-CHA.2HCl, manufactured by Nitto Boseki Co., Ltd.) for plasmin, PS-915 (H-D-Phe-Pro-Arg-CHA.2HCl, manufactured by Nitto Boseki Co., Ltd.) for thrombin and trypsin, PS-2000 (Z-D-Lys(HCO)-Gly-Arg-CHA.HCl, manufactured by Nitto Boseki Co., Ltd.) for factor Xa, S-2302 (H-D-Pro-Phe-Arg-pNA, manufactured by Kabi Co.) for kallikrein, and MUK-34: [drawing 5] for urokinase.
(§2) As plasmin, thrombin, trypsin, factor Xa, kallikrein and urokinase, there were used 0.3 CU/ml of Sankyo Color Test α2 -PI Assay Kit Standard, 1.2 NIH U/ml of Sankyo Color Test ATIII Assay Kit, 2 μg/ml of Code 3703 manufactured by Worsingstone Co., 0.25 U/ml of human factor Xa manufactured by Boehringer Mannheim, 0.12 U/ml of human plasma kallikrein manufactured by Kabi Co., and 1000 U/ml of Mochida Pharmaceutical Urokinase 60,000 (60,000 U/vial), respectively. In the case of CHA type substrate, a color-forming termination solution for Sankyo Color Test Kit was used. Enzyme reactions were carried out at 37° C.
Assay For Inhibitory Activity Against Plasmin
Each aqueous solution (0.1 ml) of the inhibitor having various concentrations was added to 0.4 ml of buffer (150 mM sodium chloride aqueous solution containing 100 mM Tris, pH 7.8) and the mixture was heated for 5 minutes. After 0.2 ml of the plasmin solution was added thereto, the mixture was reacted for 5 minutes. After 0.1 ml of PS-994 solution (10 mM) was added thereto, and the mixture was again reacted for 5 minutes. Then, 2.0 ml of the color-forming termination solution was added to the reaction mixture. Then the mixture was allowed to stand for 10 minutes and absorbance was measured at 700 nm. A concentration of the inhibitor in the reaction system showing 1/2 absorbance that of the case where no inhibitor was present was determined to be IC50.

Another assay deals with T2, urokinase (Homo sapiens, UniProt P00749).
T2 construct: purchased Mochida Pharmaceutical Urokinase 60,000 (60,000 U/vial)
Nature of the assay: Assay for inhibitory activity against urokinase (synthetic substrate MUK-34). The conditions noted are these: Table 3, compounds of the invention; MUK-34, pH 8.20, 37° C.; read-out: Urokinase.
Text: as §1, §2
Assay For Inhibitory Activity Against Urokinase
An aqueous solution (0.1 ml) of […] the inhibitor was added to 0.3 ml of buffer (150 mM sodium chloride aqueous solution containing 50 mM Tris, pH 8.20) and the mixture was heated for 5 minutes. Thereafter 0.1 ml of urokinase solution (containing 50 mM Tris, 150 mM sodium chloride aqueous solution and 0.1% BSA, pH 8.20) was added thereto, and the mixture was reacted for 5 minutes. Furthermore, 10 mM MUK-34 aqueous solution (0.1 ml) was added thereto, and the mixture was reacted for 5 minutes. Then 10% acetic acid aqueous solution (2.0 ml) was added to the mixture to terminate the reaction. Absorbance was measured at 405 nm and IC50 was determined by the method described above.

The next assay addresses T3, human plasma kallikrein (Homo sapiens, UniProt P03952).
T3 construct: purchased Kabi Co
The experiment in a line: Assay for inhibitory activity against kallikrein (synthetic substrate S-2302). The conditions noted are these: Table 3, compounds of the invention; S-2302, pH 8.0, 37° C.; read-out: Kallikrein.
Text: as §1, §2
Assay For Inhibitory Activity Against Kallikrein
To 0.4 ml of buffer (150 mN sodium chloride aqueous solution containing 50 mM Tris, pH 8.0) was added 0.1 ml each of aqueous solutions of the inhibitor having various concentrations and the mixture was heated for 5 minutes. Then, 0.1 ml of kallikrein solution (containing 0.5% bovine serum albumin, No. A-8022 of Sigma Co.) was added thereto, and the mixture was reacted for 5 minutes. Furthermore, 10 mM S-2302 aqueous solution (0.1 ml) was added thereto, and the mixture was again reacted for 5 minutes. Then, 5 ml of 20% acetic acid aqueous solution was added to terminate the reaction. Absorbance was measured at 405 nm and IC50 was determined by the method described above.

The target of a further assay is T4, human factor Xa (Homo sapiens, UniProt P00742).
T4 construct: purchased Boehringer Mannheim
T4 sequence (P00742 235-488 limits assumed): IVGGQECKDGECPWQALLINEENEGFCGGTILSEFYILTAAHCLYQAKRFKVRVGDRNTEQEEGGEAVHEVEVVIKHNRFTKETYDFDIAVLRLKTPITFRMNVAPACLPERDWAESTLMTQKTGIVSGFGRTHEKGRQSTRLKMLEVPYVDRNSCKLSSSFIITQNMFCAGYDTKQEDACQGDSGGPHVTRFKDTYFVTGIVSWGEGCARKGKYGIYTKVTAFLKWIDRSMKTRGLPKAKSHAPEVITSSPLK
T4 sequence (P00742 41-179 partner limits assumed): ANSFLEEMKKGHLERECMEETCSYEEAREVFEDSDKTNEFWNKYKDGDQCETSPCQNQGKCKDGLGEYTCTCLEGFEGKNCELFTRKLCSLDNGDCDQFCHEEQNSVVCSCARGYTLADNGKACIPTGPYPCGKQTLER
Nature of the assay: Assay for inhibitory activity against factor Xa (synthetic substrate PS-2000). The following applies: Table 3, compounds of the invention; PS-2000, pH 8.5, 37° C.; read-out: Factor.
Text: as §1, §2
Assay For Inhibitory Activity Against Factor Xa
To 0.3 ml of buffer (150 mM sodium chloride aqueous solution containing 50 mM Tris, pH 8.5) was added 0.1 ml each of an aqueous solution of the inhibitor having various concentrations. The mixture was heated for 5 minutes. Then, 0.1 ml of factor Xa solution (150 mM solution chloride aqueous solution containing 50 mM Tris and 20 mM calcium chloride, pH 8.5) was added thereto, and the mixture was reacted for 5 minutes. Furthermore,5% polyvinylpyrrolidone solution (0.1 ml) containing 10 mM PS-2000 was added thereto, and the mixture was again reacted for 5 minutes. Then, 2 ml of the color-forming termination solution was added to the reaction mixture. Then the mixture was allowed to stand for 10 minutes and absorbance was measured at 700 nm. IC50 was determined by the method described above.

The target of the next assay is T5, thrombin (Homo sapiens, UniProt P00734).
T5 construct: purchased Sankyo (Sankyo Color Test ATIII Assay Kit)
The experiment in a line: Assay for inhibitory activity against thrombin (synthetic substrate PS-915). The conditions noted are these: Table 3, compounds of the invention; PS-915, pH 8.5, 37° C.; read-out: Thrombin.
Text: as §1, §2
Assay For Inhibitory Activity Against Thrombin
Each aqueous solution (0.1 ml) of the inhibitor having various concentrations was added to 0.4 ml of buffer (150 mM sodium chloride aqueous solution containing 150 mM Tris, pH 8.5) and the mixture was heated for 5 minutes. Then, 0.2 ml of the thrombin solution was added thereto and the mixture was reacted for 5 minutes. After 0.1 ml of PS-915 solution (10 mM) was added thereto, the mixture was again reacted for 5 minutes. Then, 2 ml of the color-forming termination solution was added to the reaction mixture. Then the mixture was allowed to stand for 10 minutes and absorbance was measured at 700 nm. IC50 was determined by the method described above.

The target in another assay is T6, trypsin (Bos taurus, UniProt P00760).
T6 construct: purchased Worsingstone Co. (so in the source)
T6 sequence (P00760 24-246): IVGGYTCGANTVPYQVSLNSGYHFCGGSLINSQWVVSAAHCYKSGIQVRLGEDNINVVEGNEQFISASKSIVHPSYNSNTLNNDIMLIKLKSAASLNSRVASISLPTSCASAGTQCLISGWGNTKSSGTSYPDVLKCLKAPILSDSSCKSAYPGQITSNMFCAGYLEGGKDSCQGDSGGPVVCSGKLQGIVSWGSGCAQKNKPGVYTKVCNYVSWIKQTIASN
Nature of the assay: Assay for inhibitory activity against trypsin (synthetic substrate PS-915). The conditions noted are these: Table 3, compounds of the invention; PS-915, pH 8.0, 37° C.; read-out: Trypsin.
Text: as §1, §2
Assay For Inhibitory Activity Against Trypsin
After 0.1 ml of an aqueous solution of the inhibitor was added to 0.5 ml of buffer (150 mM sodium chloride aqueous solution containing 150 mM Tris, pH 8.0) and the mixture was heated for 5 minutes, 0.1 ml of trypsin solution was added thereto. The mixture was reacted for 5 minutes. Furthermore, 0.1 ml of PS-915 solution (10 mM) was added thereto. The mixture was again reacted for 5 minutes. Then, 2 ml of the color-forming termination solution [containing 2.5 mg/ml of soybean trypsin inhibitor (manufactured by Sigma Co., No. T-9003)] was added to the reaction mixture. Then the mixture was allowed to stand for 10 minutes and absorbance was measured at 700 nm. IC50 was determined by the method described above.

T3 sequence (P03952 20-638): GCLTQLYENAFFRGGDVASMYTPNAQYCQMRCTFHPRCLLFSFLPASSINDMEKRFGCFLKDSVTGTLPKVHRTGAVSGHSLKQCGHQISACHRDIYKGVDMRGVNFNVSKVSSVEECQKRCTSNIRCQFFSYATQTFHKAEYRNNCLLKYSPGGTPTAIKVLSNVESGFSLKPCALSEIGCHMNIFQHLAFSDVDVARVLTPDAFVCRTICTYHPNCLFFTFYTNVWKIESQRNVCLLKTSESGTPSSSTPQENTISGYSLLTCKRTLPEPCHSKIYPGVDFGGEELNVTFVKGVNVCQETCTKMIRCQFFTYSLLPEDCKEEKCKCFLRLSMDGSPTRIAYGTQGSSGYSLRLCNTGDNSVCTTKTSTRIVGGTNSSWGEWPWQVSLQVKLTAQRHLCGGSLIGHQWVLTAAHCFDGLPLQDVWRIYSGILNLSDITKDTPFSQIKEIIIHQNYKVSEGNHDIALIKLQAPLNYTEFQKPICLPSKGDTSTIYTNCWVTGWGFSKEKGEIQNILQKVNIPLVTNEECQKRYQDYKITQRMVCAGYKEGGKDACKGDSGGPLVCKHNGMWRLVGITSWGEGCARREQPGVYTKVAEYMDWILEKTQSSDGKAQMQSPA
T1 sequence (P00747 581-810 limits assumed, species assumed): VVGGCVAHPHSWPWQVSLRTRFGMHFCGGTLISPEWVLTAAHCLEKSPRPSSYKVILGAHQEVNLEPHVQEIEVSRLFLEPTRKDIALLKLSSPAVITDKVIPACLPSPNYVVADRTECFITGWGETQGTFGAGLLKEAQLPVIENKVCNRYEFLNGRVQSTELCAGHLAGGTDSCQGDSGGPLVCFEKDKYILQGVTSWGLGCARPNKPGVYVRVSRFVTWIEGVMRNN
T1 sequence (P00747 97-580 partner limits assumed, species assumed): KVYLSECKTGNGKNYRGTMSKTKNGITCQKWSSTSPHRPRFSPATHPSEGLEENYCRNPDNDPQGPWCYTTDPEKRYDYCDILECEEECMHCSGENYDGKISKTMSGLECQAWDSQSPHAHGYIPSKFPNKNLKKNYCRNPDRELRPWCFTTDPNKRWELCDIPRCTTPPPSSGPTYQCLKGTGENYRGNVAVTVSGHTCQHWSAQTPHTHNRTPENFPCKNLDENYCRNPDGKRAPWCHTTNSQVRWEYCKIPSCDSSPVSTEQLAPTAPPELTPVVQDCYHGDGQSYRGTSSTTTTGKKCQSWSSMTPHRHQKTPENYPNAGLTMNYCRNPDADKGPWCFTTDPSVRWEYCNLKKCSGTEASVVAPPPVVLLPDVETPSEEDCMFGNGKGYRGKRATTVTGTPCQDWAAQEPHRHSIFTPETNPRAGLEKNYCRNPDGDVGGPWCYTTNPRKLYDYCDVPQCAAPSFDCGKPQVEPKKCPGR

Turning to “N-ε-Ethanesulfonyl-D-lysyl-L-prolyl-L-argininal sulfate [Example 5]”, the IC50 on plasmin came out at 6.3 µM; at urokinase, 81 µM; on human plasma kallikrein, 5.4 µM; at human factor Xa, 18 µM; at thrombin it was 1.3 µM; at trypsin, 0.065 µM.

In the case of “N-ε-acetyl-D-lysyl-L-prolyl-L-argininal sulfate [Example 10]”, the IC50 at plasmin is 4.3 µM; at urokinase, 40 µM; on human plasma kallikrein, 4 µM; at human factor Xa it was 4.1 µM; at thrombin, 0.33 µM; on trypsin, 0.06 µM.
